Reference: ChEMBL document CHEMBL1201862, “PubChem BioAssay data set” (2004)
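Cultured in 96-well plates, cells were exposed to test compound for 48 hours across five concentrations. The concentration for 50% growth inhibition is given as GI50.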 Activity calls are given as the source filed them. Cut-off read from the data, not from the text of the source: active = GI50 up to about 1.1 µM and inactive = higher.

Tests used:
Assay in all cases: DTP human tumour cell line panel, 48 h
[1] = tested on: COLO 205
[2] = tested on: HCT-116
[3] = tested on: HT-29
[4] = tested on: K562
[5] = tested on: KM12
[6] = tested on: LOX IMVI
[7] = tested on: MOLT-4
[8] = tested on: NCI-H23
[9] = tested on: NCI-H522
[10] = tested on: OVCAR-4
[11] = tested on: OVCAR-5
[12] = tested on: OVCAR-8
[13] = tested on: PC-3
[14] = tested on: RPMI-8226
[15] = tested on: SF-539
[16] = tested on: SNB-75
[17] = tested on: SW-620
[18] = tested on: U-251
[19] = tested on: A498
[20] = tested on: UO-31

Measured: GI50

Cc1c2ccccc2c(C)n2c1nc1cc(Cl)c(Cl)cc12
inactive: [1] > 10 µM | [2] > 10 µM | [3] > 10 µM | [4] > 10 µM | [5] > 10 µM | [6] 2.78 µM | [7] 2.93 µM | [8] > 10 µM | [9] 5.81 µM | [10] > 10 µM | [11] > 10 µM | [12] > 10 µM | [13] > 10 µM | [14] 8.83 µM | [15] > 10 µM | [16] 3.8 µM | [17] > 10 µM | [18] > 10 µM

COc1cc2c(cc1OC)[C@@H](Nc1ccc(F)cc1)C1COC(=O)[C@@H]1C2c1cc(OC)c(O)c(OC)c1 (stereo partly specified)
inactive: [19] 1.14 µM | [1] 12.5 µM | [2] 3.56 µM | [3] 3.66 µM | [4] 1.19 µM | [5] 2.77 µM | [9] 2.2 µM | [10] 16.7 µM | [11] 3.33 µM | [12] 1.99 µM | [16] 2.5 µM | [20] 2.14 µM
active: [6] 0.671 µM | [7] 0.0147 µM | [8] 0.632 µM | [14] 0.16 µM | [15] 0.594 µM | [17] 0.512 µM | [18] 0.493 µM

Cn1c2ccccc2c(=O)c2cccc(C(=O)NC(CCCNC(=N)N)C(=O)O)c21 (stereo unspecified)
inactive: [1] > 100 µM | [2] > 100 µM | [3] > 100 µM | [4] > 100 µM | [5] > 100 µM | [6] > 100 µM | [7] > 100 µM | [8] > 100 µM | [10] > 100 µM | [11] > 100 µM | [12] > 100 µM | [13] > 100 µM | [14] > 100 µM | [15] > 100 µM | [16] > 100 µM | [17] > 100 µM | [18] > 100 µM | [20] > 100 µM

S=C1Cc2c([nH]c3ccccc23)-c2ccccc2N1
inactive: [1] > 100 µM | [2] 25.1 µM | [3] > 100 µM | [4] 47.5 µM | [5] > 100 µM | [6] 75.2 µM | [7] 23.6 µM | [8] 79.1 µM | [10] > 100 µM | [11] > 100 µM | [12] 38.3 µM | [13] 21.5 µM | [14] > 100 µM | [15] 43.6 µM | [16] 26.2 µM | [17] > 100 µM | [20] 19.1 µM

CS/C(c1ccccc1)=[N+](\[O-])Cc1ccccc1
inactive: [19] > 100 µM | [1] > 100 µM | [2] > 100 µM | [3] 50.7 µM | [4] > 100 µM | [5] > 100 µM | [6] 16.4 µM | [7] > 100 µM | [8] > 100 µM | [9] 90.2 µM | [10] > 100 µM | [11] > 100 µM | [12] > 100 µM | [14] 27.1 µM | [15] > 100 µM | [16] > 100 µM | [18] > 100 µM | [20] > 100 µM

CCC(=O)N1NC(=O)C(CC)(CC)C1=O
inactive: [1] > 100 µM | [2] > 100 µM | [3] > 100 µM | [4] > 100 µM | [5] > 100 µM | [6] > 100 µM | [7] > 100 µM | [8] > 100 µM | [9] > 100 µM | [10] > 100 µM | [11] > 100 µM | [12] > 100 µM | [13] > 100 µM | [14] > 100 µM | [16] 36.8 µM | [17] > 100 µM | [18] > 100 µM | [20] > 100 µM

COc1cc([C@H]2CC(=O)C[C@@H](c3cc(OC)c(OC)c(OC)c3)C23C(=O)c2ccccc2C3=O)cc(OC)c1OC
inactive: [1] > 100 µM | [2] > 100 µM | [3] > 100 µM | [4] > 100 µM | [5] > 100 µM | [6] > 100 µM | [7] > 100 µM | [8] > 100 µM | [9] > 100 µM | [10] > 100 µM | [11] > 100 µM | [12] > 100 µM | [13] > 100 µM | [14] > 100 µM | [15] > 100 µM | [16] 45.1 µM | [17] > 100 µM | [18] > 100 µM | [20] > 100 µM

CN(C)C(=O)Nc1c([N+](=O)[O-])cc(C(F)(F)F)cc1[N+](=O)[O-]
inactive: [19] > 100 µM | [1] 25 µM | [2] 24.6 µM | [3] 35 µM | [4] 37.6 µM | [5] 37 µM | [6] 28.8 µM | [7] 78.5 µM | [8] 27.7 µM | [9] 29.9 µM | [10] 27.7 µM | [11] > 100 µM | [12] 40.4 µM | [14] 41.1 µM | [15] 42 µM | [16] 74 µM | [17] 32.7 µM | [18] > 100 µM | [20] > 100 µM

Cc1ccc(C2(c3ccc(C)cc3)SC(=C(C#N)C#N)c3ccccc32)cc1
inactive: [19] > 100 µM | [2] 13.2 µM | [3] 55.6 µM | [4] 7.67 µM | [5] 23 µM | [7] 21.1 µM | [8] > 100 µM | [11] > 100 µM | [12] > 100 µM | [13] 83.9 µM | [15] > 100 µM | [17] 6.75 µM | [18] 18.1 µM | [20] > 100 µM

CCOC(=O)CN(Cc1ccccc1)Cc1c(C(=O)c2ccccc2)c2ccccc2n1C(=O)c1ccccc1
inactive: [19] > 100 µM | [1] > 100 µM | [2] 32.7 µM | [3] > 100 µM | [4] > 100 µM | [5] > 100 µM | [6] > 100 µM | [7] 5.4 µM | [8] > 100 µM | [9] > 100 µM | [10] > 100 µM | [11] > 100 µM | [12] > 100 µM | [14] 17.9 µM | [15] > 100 µM | [16] 18.3 µM | [17] > 100 µM | [18] > 100 µM | [20] > 100 µM

CC(C)C(NCc1c2ccccc2[n+](C)c2ccccc12)C(=O)O (stereo unspecified)
active: [4] 0.782 µM | [14] 0.603 µM
inactive: [19] 7.26 µM | [1] 2.34 µM | [2] 2.67 µM | [3] 2.89 µM | [5] 4.91 µM | [6] 5.42 µM | [7] 1.14 µM | [8] 8.43 µM | [9] 2.15 µM | [10] 7.62 µM | [11] 18.9 µM | [12] 3.78 µM | [15] 5.94 µM | [16] 1.5 µM | [17] 3.7 µM | [18] 7.28 µM | [20] 8.07 µM

Cc1nc(Cl)nc(Cl)c1C
inactive: [3] > 100 µM | [4] > 100 µM | [5] > 100 µM | [6] > 100 µM | [7] > 100 µM | [8] > 100 µM | [9] > 100 µM | [10] > 100 µM | [11] > 100 µM | [12] > 100 µM | [13] > 100 µM | [14] > 100 µM | [15] > 100 µM | [16] > 100 µM | [17] > 100 µM | [18] > 100 µM | [20] > 100 µM

O=C(NC1=C(Cl)C(=O)c2ccccc2C1=O)C(=O)C(C(=O)c1ccc2ccccc2c1)C1OC(=O)c2ccccc21 (stereo unspecified)
active: [6] 1.08 µM
inactive: [19] 4.68 µM | [1] 7.4 µM | [2] 3.52 µM | [3] 4.07 µM | [4] 3.55 µM | [5] 3.09 µM | [7] 2.06 µM | [8] 2.9 µM | [9] 3.94 µM | [10] 6.97 µM | [11] 11.8 µM | [12] 4.61 µM | [14] 2.05 µM | [15] 2.95 µM | [16] 2.87 µM | [17] 5.13 µM | [18] 4.38 µM | [20] 13.2 µM

C[C@@]1(Br)C[C@@](C)(Cl)[C@@H](Br)CC1/C=C/Cl (stereo partly specified)
inactive: [1] 15.6 µM | [2] 11 µM | [3] 16.1 µM | [4] 15.3 µM | [5] 16.1 µM | [6] 17.6 µM | [7] 13.3 µM | [8] 28.6 µM | [10] 24.8 µM | [11] 15.1 µM | [12] 16 µM | [13] 15.9 µM | [14] 16 µM | [15] 15.2 µM | [16] 12.8 µM | [17] 26.9 µM | [18] 19.3 µM | [20] 18.5 µM

C=C(CO)[C@H]1CC/C(C)=C/CC/C(C)=C/C/C=C(\C)[C@H](O)C1
inactive: [1] 22.3 µM | [2] 26.9 µM | [3] 18.5 µM | [4] 37.8 µM | [5] 15.9 µM | [6] 27.5 µM | [7] 18.3 µM | [8] 29.2 µM | [9] 16.9 µM | [10] 46.7 µM | [11] 47.1 µM | [12] 17.8 µM | [13] 41.8 µM | [14] 20 µM | [15] 23.5 µM | [16] 31 µM | [17] 20.2 µM | [18] 19.1 µM | [20] 30.9 µM
